Reference: patent US20190314311A1, “PHARMACEUTICAL COMPOSITION” (JAPAN SCIENCE AND TECHNOLOGY AGENCY, priority 2016, published 2019)

Assays:
[1] = test system: SCA1 mice; test: balance beam test; type: in vivo, mouse; conditions: 6% arginine in drinking water from 3 weeks; 28 weeks of age; vs untreated SCA1 mice
Description: SCA1 mice were also examined using the balance beam test to assess the motor coordination. For balance beam analysis, mice were assessed on their time to cross a beam with 1 m-long and 15 mm-diameter. The beam was placed approximately 50 cm above the ground with a bright light at the starting end and a dark box at the far end. Mice were initially trained for 3 consecutive days, 2 trials each, so that they learn to cross the beam without falling or turning around. On testing days, the time it took the mice to cross the beam was recorded. If the mice took longer than 60 seconds to cross, the score was counted as 60 seconds. Two trials were performed for each mouse, and a faster time was used for analysis.

[2] = test system: SBMA mice; test: horizontal open-field activity and rearing behavior; type: in vivo, mouse; conditions: 6% arginine in drinking water from 3 weeks; 12 weeks of age
Source text: As another PolyQ disease mouse model, the SBMA mouse (Non-Patent Document 18) was used. […] This motor dysfunction can be reversed with drug treatment (Non-Patent Document 19). The SBMA mouse used in this experiment was a kind gift from Dr. Gen Sobue (Nagoya University, Japan).
The motor dysfunction of the SBMA mouse can be monitored as spontaneous motor dysfunction, by measuring horizontal open-field activity and rearing behavior in the cage (Non-Patent Document 18). […] As a control, water without arginine was given to SBMA mice as drinking water (arginine untreated).
Horizontal open-field activity and rearing behavior were measured using a spontaneous locomotor activity monitor “Supermex” (Muromachi Kikai) according to the method described in Non-Patent Document 18. Specifically, a mouse was placed in a measuring cage in which infrared beams were projected inside and were allowed to move around freely. When the mouse moves inside the measuring cage, the infrared beam is obstructed and the infrared ray cannot be detected by the light receiving part (beam break). The number of beam breaks per minute was determined by measuring the number of beam breaks (counts/min). To detect movements in the horizontal direction, the number of beam breaks of the infrared beams projected in the vertical direction were counted. […]

[3] = Non-Patent Documents 3 and 4; cited from earlier work
[4] = molecular target: T1, amyloid-β (beta) 1-42 (Homo sapiens, UniProt P05067); conditions: Non-Patent Document 2; cited from earlier work
T1 construct: amyloid-β (beta) 1-42

[5] = test system: Q40-GFP expressing nematode line; test: tail-flick test in C. elegans model of the PolyQ diseases; type: in vivo, Caenorhabditis elegans; conditions: 10 mM arginine, 6 days old nematodes, 20° C.
Description: As a C. elegans model of the polyQ diseases, a Q40-GFP expressing nematode line (Non-Patent Document 14), which is a C. elegans line expressing GFP having a polyQ repeat consisting of 40 glutamines (Q40-GFP) was used.
Nematodes were grown at 20° C. on nematode growth medium (NGM) plates seeded with Escherichia coli OP50. For the generation of the Q40-GFP expression nematode line, plasmids encoding Q40-GFP were injected into wild type strain N2.
Tail-flick tests were performed at 20° C. on nematodes synchronized to 6 days old. First, each nematode was transferred to a separate plate. One drop of S-basal solution was dropped on one nematode, and after waiting for 5 minutes for them to recover, the number of movements of the tail of the worm was measured for 1 minute. The number of movements of the tail was defined as the number of times to change the bending direction of the mid-body of a nematode.

[6] = test system: SCA1 mice; test: immunohistochemical analysis of PolyQ inclusion bodies in brain; type: in vivo, mouse; conditions: 12-week-old SCA1 mice, 6% arginine in drinking water from 3 weeks
Description: It was reported that SCA1 mice develop polyQ inclusion bodies (PolyQ protein aggregates) in their neurons of the cerebral cortex and hippocampus from around 4 weeks of age (Non-Patent Document 15).
PolyQ inclusion bodies in brain sections were detected using immunohistochemical analysis. First, ten-micrometer-thick frozen sections of 12 week-old SCA1 mouse brains were prepared according to the method described in Non-Patent Document 17. The sections were blocked in PBS containing 5% goat serum and 0.1% Triton X-100 for 1 hour at room temperature, then incubated with a rabbit anti-ubiquitin antibody (clone FK2, 1:500) at 4° C. overnight, followed by an Alexa Fluor 488-conjugated goat anti-rabbit IgG antibody (1:1,000, Life Technologies) for 1 hour at room temperature. […]
By confocal laser scanning microscopy, inclusion bodies stained with the anti-ubiquitin antibody can be visualized. Therefore, the sections were observed using a confocal laser scanning microscope, cells included in the field of view were counted, and the percentage (%) of the cells in which the inclusion bodies were formed to the total number of cells was measured. In each mouse, the cell count was averaged for 3 fields of view, in which over 130 or 70 cells were counted in the cortex or hippocampus, respectively. […]

[7] = test system: SCA1 mice; test: rotarod test, arginine from 3 weeks of age; type: in vivo, mouse; conditions: 6% by weight arginine in drinking water from 3 weeks of age
Source text: SCA1 mice express the abnormally expanded polyQ protein (the mutant ataxin 1 protein with polyQ repeats consisting of 154 glutamines) at endogenous levels and with accurate temporal and spatial patterns, and replicates numerous aspects of the human disease including progressive motor deficit. The SCA1 mice used in this experiment were a kind gift from Dr. Kei Watase (Tokyo Medical and Dental University, Japan).
Rotarod tests have been previously utilized for the assessment of motor function in SCA1 mice (Non-Patent Document 15).
For rotarod analysis, mice were tested on an accelerating rotarod apparatus (Ugo Basile) and performed according to the method described in Non-Patent Document 17. The time courses of the amount of walking time until wild type mice and SCA1 mice fell from the rotarod (Latency) are shown in FIG. 17. […] In the figure, values represent means±SEM (n=16-18), “**” represents p<0.01, and “***” represents p<0.001, respectively.

T1 sequence (P05067 672-713 limits assumed): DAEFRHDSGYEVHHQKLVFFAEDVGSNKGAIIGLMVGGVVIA

For `N=C(N)NCCC[C@H](N)C(=O)O` [arginine], which “time to cross the balance beam” value [1] is on record?
The value was “significantly less time”.

What about the horizontal activity [2] of the same compound?
The horizontal activity was “improved to levels comparable to untreated wild type mice”.

What about the rearing behavior [2] of the same compound?
The rearing behavior was “improved to levels comparable to untreated wild type mice”.

And the “safety in clinical trials” value [3]?
Its value is “safety of arginine has been established”.

And the “aggregation of amyloid-β 1-42” value [4]?
Its value is “prevents aggregation”.

What about the “tail movements per minute” value [5] of the same compound?
The value was “significantly improved”.

And the “percentage of cells with inclusion body formation, cerebral cortex” value [6]?
The value was “significantly decreased”.

And the “percentage of cells with inclusion body formation, hippocampus” value [6]?
The value was “significantly decreased”.

And the “motor function, rotarod latency” value ([7]; 4 to 12 weeks of age)?
Its value is “significantly better than the untreated mice”.

And the “therapeutic effect on rotarod, duration” value ([7]; until 28 weeks of age)?
Its value is “remained significant until 28 weeks of age”.
